Results as given in publication PMC3833056 (The Journal of organic chemistry, 2010).

Key:
[1] = tested on: mycobacterial α-(1,6)-mannosyltransferases; assay: In vitro PPM-dependent α-; type: biochemical, Mycobacterium smegmatis; conditions: inhibitor 1.0 mM; acceptor 0.2 mM; several independent experiments
[2] = tested on: α-(1,6)-ManTs; assay: Mannosyl acceptor; type: biochemical, Mycobacterium smegmatis; conditions: up to 4 mM

Row | SMILES | inhibition of α-(1,6)-mannosyltransferase activity [1] | mannosyl acceptor activity [2]
1 | C[C@H]1O[C@H](c2cn(C[C@H]3O[C@@H](c4cn(C[C@H]5O[C@@H](c6cn(C[C@H]7O[C@@H](c8cn(C[C@H]9O[C@@H](c%10cn(C[C@H]%11O[C@@H](c%12cn(C[C@H]%13O[C@H](c%14cn(C[C@H]%15O[C@H](CCO)[C@@H](O)[C@@H](O)[C@@H]%15O)nn%14)[C@@H](O)[C@@H](O)[C@@H]%13O)nn%12)[C@@H](O)[C@@H](O)[C@@H]%11O)nn%10)[C@@H](O)[C@@H](O)[C@@H]9O)nn8)[C@@H](O)[C@@H](O)[C@@H]7O)nn6)[C@@H](O)[C@@H](O)[C@@H]5O)nn4)[C@@H](O)[C@@H](O)[C@@H]3O)nn2)[C@@H](O)[C@@H](O)[C@@H]1O [TOM-8] | ca. 95% | 
2 | OCC[C@H]1O[C@H](Cn2cc([C@H]3O[C@H](CO)[C@@H](O)[C@H](O)[C@@H]3O)nn2)[C@@H](O)[C@H](O)[C@@H]1O [compound 31, 3,7-Anhydro-2,8-dideoxy-8-[4-(α-D-mannopyranosyl)-1H-1,2,3-triazol-1-yl]-D-glycero-D-talo-octitol] |  | poor mannosyl acceptor
3 | C[C@H]1O[C@H](c2cn(C[C@H]3O[C@@H](c4cn(C[C@H]5O[C@@H](c6cn(C[C@H]7O[C@@H](c8cn(C[C@H]9O[C@H](c%10cn(C[C@H]%11O[C@H](CCO)[C@@H](O)[C@@H](O)[C@@H]%11O)nn%10)[C@@H](O)[C@@H](O)[C@@H]9O)nn8)[C@@H](O)[C@@H](O)[C@@H]7O)nn6)[C@@H](O)[C@@H](O)[C@@H]5O)nn4)[C@@H](O)[C@@H](O)[C@@H]3O)nn2)[C@@H](O)[C@@H](O)[C@@H]1O [TOM-6] | ca. 95% | 
